Measurements published in US20200147070A1, “INDUCING PHOSPHOLIPIDOSIS FOR ENHANCING THERAPEUTIC EFFICACY” (Nextcea Inc., priority 2017, published 2020).
Each block holds one molecule with its values, some of them ahead of it.

What was measured:
di-22:6-BMP = assay: PL biomarker di-22:6-BMP in tissues and urine; assay type: in vivo, Sprague-Dawley rats; details: 2 weeks; for PL biomarker di-22:6-BMP in tissues (PL induced in both treatment groups): amiodarone 150 mg/kg/day alone or co-administered with fluoxetine 10 mg/kg/day, heart, liver, kidney, lung; for di-22:6-BMP biomarker in various tissues (PL induced): fluoxetine 10 mg/kg/day alone or co-administered with amiodarone 150 mg/kg/day
cathepsin-B = molecular target: T1, cathepsin-B (Rattus norvegicus, UniProt P00787); assay: Fluorescence-based cathepsin-B activity assay (RR-AFC substrate) in liver and spleen homogenates of treated rats; assay type: in vivo, Sprague-Dawley rats
T1 construct: from tissue; host or cells: liver and spleen homogenates of Sprague-Dawley rats
Experimental: Cathepsin-B is a lysosomal protease that plays an important role in intracellular proteolysis. […] Liver and spleen homogenates were analyzed using a fluorescence-based assay that utilized the preferred cathepsin-B substrate sequence RR labeled with amino-4-trifluoromethyl coumarin (AFC). Samples that contain cathepsin-B cleave the synthetic substrate RR-AFC to release free AFC.

[1] = amiodarone 150 mg/kg/day co-administered with fluoxetine 10 mg/kg/day, 2 weeks, vs amiodarone alone
From the text: Heart, liver, kidney and lung tissues were collected at necropsy at 2 weeks.

liver, kidney, and heart = assay: Electron microscopic examination of tissue sections for phospholipidosis, 2-week repeat dose study; assay type: in vivo, Sprague-Dawley rats; details: co-administered bedaquiline 60 mg/kg/day and citalopram 70 mg/kg/day, 2 weeks
Experimental: FIG. 3 is a set of electron micrographs depicting the accumulation of lysosomal myeloid bodies, indicative of PL, in rat tissues. Sprague-Dawley rats received once daily oral (PO) co-administration of bedaquiline (60 mg/kg/day) and citalopram (70 mg/kg/day) for 2 weeks.
Sprague-Dawley rats were co-administered bedaquiline (60 mg/kg/day) and citalopram (70 mg/kg/day) in a 2-week repeat dose study. Tissue sections (liver, kidney, and heart) were collected at 2 weeks for electron microscopic examination and PL biomarker/proteomic evaluation.

cathepsin B1 = cathepsin B1 (Rattus norvegicus, UniProt P00787); details: Wibo and Poole 1974; cited from earlier work
[2] = Fluoxetine tissue concentrations, alone or co-administered with amiodarone; assay type: in vivo, Sprague-Dawley rats; details: fluoxetine 10 mg/kg/day co-administered with amiodarone 150 mg/kg/day, 2 weeks; tissues including brain
From the text: FIG. 8 is a set of graphs showing that PL-induction increased drug tissue concentrations to enhance in vivo drug efficacy.
PL was induced as indicated by an increase in the di-22:6-BMP biomarker in various tissues.

T1 sequence (P00787 80-333): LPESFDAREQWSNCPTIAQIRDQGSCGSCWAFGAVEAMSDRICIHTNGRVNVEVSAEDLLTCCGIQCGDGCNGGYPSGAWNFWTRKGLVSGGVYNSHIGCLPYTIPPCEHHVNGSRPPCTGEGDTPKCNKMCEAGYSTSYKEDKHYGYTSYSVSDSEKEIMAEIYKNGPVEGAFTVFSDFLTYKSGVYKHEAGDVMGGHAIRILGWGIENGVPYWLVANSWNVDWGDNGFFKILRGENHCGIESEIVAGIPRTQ
cathepsin B1, sequence (P00787 80-333): as above

activity of cathepsin B in rat liver and spleen (cathepsin-B; PL induced by amiodarone): slowed | levels of free AFC in tissues compared to controls (cathepsin-B activity) (cathepsin-B; amiodarone 150 mg/kg/day, 2 weeks, liver and spleen homogenates): lower | concentration of amiodarone in the lung tissue [1]: decreased
Compound: CCCCc1oc2ccccc2c1C(=O)c1cc(I)c(OCCN(CC)CC)c(I)c1 [amiodarone]
PL biomarker di-22:6-BMP in tissues (PL induced in both treatment groups) (di-22:6-BMP): increase | di-22:6-BMP biomarker in various tissues (PL induced) (di-22:6-BMP): increase

Compound: COc1nc2ccc(Br)cc2cc1[C@@H](c1ccccc1)[C@@](O)(CCN(C)C)c1cccc2ccccc12 [bedaquiline]
biomarker di-22:6-BMP in rat tissues and urine (di-22:6-BMP; co-administered bedaquiline 60 mg/kg/day and citalopram 70 mg/kg/day): increase | multi-lamellar lysosomal inclusions and electron dense deposits (indicative of drug-induced PL) (liver, kidney, and heart): treatment-dependent increase

Compound: CCN(CC)CCCC(C)Nc1ccnc2cc(Cl)ccc12 (centres unmarked) [chloroquine]
cathepsin B1 activities (cathepsin B1): inhibited

fluoxetine concentrations in tissues, compared to fluoxetine alone [2]: increased
Compound: CNCCC(Oc1ccc(C(F)(F)F)cc1)c1ccccc1 (centres unmarked) [fluoxetine]
PL biomarker di-22:6-BMP in tissues (PL induced in both treatment groups) (di-22:6-BMP): increase | di-22:6-BMP biomarker in various tissues (PL induced) (di-22:6-BMP): increase
